Experimental findings from patent publication US20240059698A1 (Accutar Biotechnology Inc., priority 2022, published 2024) are described below.

Where two headings read alike, the source gives them in different places.

Type in all cases: cell-based
The subject of one test is HCC827 cells. Put plainly: Cell growth inhibition (CellTiter-Glo), HCC827. The settings on record: Homo sapiens, 72 h, 3 days. The method, boiled down:
(§1)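 HCC827 cells in RPMI and A431 cells in DMEM (both 10% FBS) were seeded at 5000 cells/well and left overnight. They were then exposed to compound dilutions for 3 days at 37° C. Viability was read by CellTiter-Glo luminescence.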

For test [1], the system named is HCC827-SVD cells (human EGFR exon 20 insertion mutant D770_N771insSVD). Put plainly: Cell growth inhibition (CellTiter-Glo), HCC827-SVD. The settings on record: 72 h, 3 days. The method, boiled down:
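HCC827 cells with endogenous EGFR knocked out and lentivirally expressing the insertion mutant (single clone) were seeded at 5000 cells/well in RPMI with 10% FBS. After overnight, compounds added; 3 days at 37 °C, then CellTiter-Glo luminescence.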

The subject of test [2] is HCC827-YVMA cells (human ERBB2 exon20 insertion mutant A775_G776ins YVMA). Put plainly: Cell growth inhibition (CellTiter-Glo), HCC827-YVMA. To be noted: 72 h, read-out: Cell growth inhibition, GI50 (nM) HCC827-YVMA. The method, boiled down: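 HCC827 cells transduced with lentiviral codon-optimized mutant (ERBB2 A775_G776insYVMA or EGFR V769_D770insASV), endogenous EGFR knocked out by CRISPR, single clone selected. Cells seeded overnight in RPMI/10% FBS, then exposed to serially diluted compounds at 37 °C for 3 days; viability read by CellTiter-Glo luminescence.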

For a further test, the system named is A431 cells. Put plainly: Cell growth inhibition (CellTiter-Glo), A431. To be noted: Homo sapiens, A-431, 72 h, 3 days. The method, boiled down: as §1
Test [3] relates to HCC827-ASV cells (human EGFR exon 20 insertion mutant V769_D770insASV). Description: Cell growth inhibition (CellTiter-Glo), HCC827-ASV. To be noted: 72 h, read-out: Cell growth inhibition, GI50 (nM) HCC827-ASV. The method, then: Generation of HCC827-SVD, HCC827-ASV, and HCC827-YVMA cell lines. The HCC827-SVD cell line was generated by first transducing HCC827 cells (ATCC) with lentiviral particles expressing codon-optimized human EGFR exon 20 insertion mutant D770_N771insSVD, and then selecting under 5 µg/mL puromycin treatment for a week. The resulting cells were further transduced with lentiviral particles carrying EGFR sgRNA and CAS9 to knockout the endogenous alleles of EGER and then selected under 500 µg/mL hygromycin B treatment for two weeks. The limiting dilution approach was used to subsequently generate the single clone of the HCC827-SVD stable cell line. Endogenous EGFR knockout was confirmed by Sanger sequencing of cell genomic DNA, and expression of exogenous mutant EGFR was verified by Western blot analysis.
HCC827-ASV and HCC827-YVMA cell lines were generated in a similar approach as HCC827-SVD, except that HCC827 cells (ATCC) were first transduced with lentiviral particles expressing codon-optimized human EGFR exon 20 insertion mutant V769_D770insASV and human ERBB2 exon20 insertion mutant A775_G776ins YVMA, respectively.
2. Cell Growth Inhibition for HCC827, HCC827-SVD, HCC827-ASV, HCC827-YVMA, and A431.
HCC827(ATCC), HCC827-SVD, HCC827-ASV, and HCC827-YVMA cells were seeded in 96-well plates at 5000 cells/well in 90 μL of RPMI growth medium containing 10% FBS and 1% Penicillin Streptomycin. A431 (ATCC) cells were seeded in 96-well plates at 5000 cells/well in 90 μL of DMEM growth medium containing 10% FBS and 1% Penicillin Streptomycin. Cells were incubated at 37° C. overnight and then administered with 10 μL 10× test compounds prepared in the growth medium at various concentrations. After administration of the compounds, cells were incubated at 37° C. for 3 days. Before the CellTiter-Glo assay, the plates were equilibrated at room temperature for approximately 30 minutes. 100 ul of CellTiter-Glo reagent (Promega) was added to each well. The plates were then incubated at room temperature for 10 minutes and luminescence was recorded by the EnSight® multimode plate reader (PerkinElmer). Table 7 listed selected compounds in cellular growth assay.

[4] abbreviates: HCC827-YVMA cells, 3 days, CellTiter-Glo.
Setting [5] is: HCC827-ASV cells, 3 days, CellTiter-Glo.

Turning to `C=CC(=O)N1CCC(c2ccn3ncnc(Nc4ccc(Oc5nc(-c6ccnn6C)cs5)cc4F)c23)CC1` [Compound 207, 1-(4-(4-((2-fluoro-4-((4-(1-methyl-1H-pyrazol-5-yl)thiazol-2-yl)oxy)phenyl)amino)pyrrolo[2,1-f][1,2,4]triazin-5-yl)piperidin-1-yl)prop-2-en-1-one], the GI50 was over 1000 nM in the test on HCC827 cells, 200 to 1000 nM in test [1], 50 to 200 nM in test [2] (setting [4]) and over 1000 nM in the test on A431 cells.

`C=CC(=O)N1CCC(c2c[nH]c3ncnc(Nc4ccc(OCc5cscn5)c(Cl)c4F)c23)CC1` [Compound 216, 1-(4-(4-((3-chloro-2-fluoro-4-(thiazol-4-ylmethoxy)phenyl)amino)-7H-pyrrolo[2,3-d]pyrimidin-5-yl)piperidin-1-yl)prop-2-en-1-one]: the 50% growth inhibitory concentration (GI50) in test [1], in test [3] (setting [5]) and in test [2] (setting [4]) was under 50 nM each time.

With `C=CC(=O)N1CCC(c2c[nH]c3ncnc(Nc4ccc(OCc5csc(C)n5)c(Cl)c4)c23)CC1` [Compound 217, 1-(4-(4-((3-chloro-4-((2-methylthiazol-4-yl)methoxy)phenyl)amino)-7H-pyrrolo[2,3-d]pyrimidin-5-yl)piperidin-1-yl)prop-2-en-1-one], the GI50 in test [1], in test [3] (setting [5]) and in test [2] (setting [4]) was under 50 nM in each case.

As for `C=CC(=O)N1CCC(c2c[nH]c3ncnc(Nc4ccc(O[C@H](C)c5cscn5)c(Cl)c4)c23)CC1` [Compound 218, (R)-1-(4-(4-((3-chloro-4-(1-(thiazol-4-yl)ethoxy)phenyl)amino)-7H-pyrrolo[2,3-d]pyrimidin-5-yl)piperidin-1-yl)prop-2-en-1-one], the concentration for 50% growth inhibition (GI50) in test [1], in test [3] (setting [5]) and in test [2] (setting [4]) was under 50 nM throughout.

Take `C=CC(=O)N1CCC(c2c[nH]c3ncnc(Nc4ccc(OCc5ncsc5C)c(Cl)c4)c23)CC1` [Compound 219, 1-(4-(4-((3-chloro-4-((5-methylthiazol-4-yl)methoxy)phenyl)amino)-7H-pyrrolo[2,3-d]pyrimidin-5-yl)piperidin-1-yl)prop-2-en-1-one]: the GI50 in test [1], in test [3] (setting [5]) and in test [2] (setting [4]) was under 50 nM in each case.

For `C=CC(=O)N1CCC(c2c[nH]c3ncnc(Nc4ccc(OCc5ccccn5)c(Br)c4F)c23)CC1` [Compound 220, 1-[4-[4-[3-bromo-2-fluoro-4-(2-pyridylmethoxy)anilino]-7H-pyrrolo[2,3-d]pyrimidin-5-yl]-1-piperidyl]prop-2-en-1-one], the GI50 in test [1], in test [3] (setting [5]) and in test [2] (setting [4]) was under 50 nM each time.

On to `C=CC(=O)N1CCC(c2c[nH]c3ncnc(Nc4cc(Cl)c(OCc5ccccn5)cc4F)c23)CC1` [Compound 221, 1-(4-(4-((5-chloro-2-fluoro-4-(pyridin-2-ylmethoxy)phenyl)amino)-7H-pyrrolo[2,3-d]pyrimidin-5-yl)piperidin-1-yl)prop-2-en-1-one], for which the GI50 in test [1], in test [3] (setting [5]) and in test [2] (setting [4]) was under 50 nM throughout.

With `C=CC(=O)N1CCC(c2c[nH]c3ncnc(Nc4cc(Cl)c(OCc5ccccn5)cc4Cl)c23)CC1` [Compound 222, 1-[4-[4-[2,5-dichloro-4-(2-pyridylmethoxy)anilino]-7H-pyrrolo[2,3-d]pyrimidin-5-yl]-1-piperidyl]prop-2-en-1-one], the 50% growth inhibitory concentration (GI50) in test [1], in test [3] (setting [5]) and in test [2] (setting [4]) was under 50 nM in each case.

With `C=CC(=O)N1CCC(c2c[nH]c3ncnc(Nc4ccc(OCc5ncc(F)s5)c(Cl)c4)c23)CC1` [Compound 223, 1-[4-[4-[3-chloro-4-[(5-fluorothiazol-2-yl)methoxy]anilino]-7H-pyrrolo[2,3-d]pyrimidin-5-yl]-1-piperidyl]prop-2-en-1-one], the 50% growth inhibitory concentration (GI50) in test [1], in test [3] (setting [5]) and in test [2] (setting [4]) was under 50 nM in each case.

With `C=CC(=O)N1CCC(c2c[nH]c3ncnc(Nc4ccc(OCc5cc6sccc6cn5)c(Cl)c4)c23)CC1` [Compound 224, 1-(4-(4-((3-chloro-4-(thieno[3,2-c]pyridin-6-ylmethoxy)phenyl)amino)-7H-pyrrolo[2,3-d]pyrimidin-5-yl)piperidin-1-yl)prop-2-en-1-one], the GI50 in test [1], in test [3] and in test [2] was under 50 nM in each case.

Regarding `C=CC(=O)N1CCC(c2c[nH]c3ncnc(Nc4ccc5c(cnn5Cc5cccc(F)c5)c4)c23)CC1` [Compound 226, 1-(4-(4-((1-(3-fluorobenzyl)-1H-indazol-5-yl)amino)-7H-pyrrolo[2,3-d]pyrimidin-5-yl)piperidin-1-yl)prop-2-en-1-one], the GI50 in test [1], in test [3] (setting [5]) and in test [2] (setting [4]) was under 50 nM each time.

As to `[2H]C([2H])(Oc1ccc(Nc2ncnc3[nH]cc(C4CCN(C(=O)C=C)CC4)c23)cc1Cl)c1ccccn1` [Compound 227, 1-(4-(4-((3-chloro-4-(pyridin-2-ylmethoxy-d2)phenyl)amino)-7H-pyrrolo[2,3-d]pyrimidin-5-yl)piperidin-1-yl)prop-2-en-1-one], the GI50 in test [1], in test [3] (setting [5]) and in test [2] (setting [4]) was under 50 nM in each case.

Consider `C=CC(=O)N1CCC(c2c[nH]c3ncnc(Nc4ccc(OCc5cccc(F)c5)c(Cl)c4)c23)CC1` [Compound 228, 1-(4-(4-((3-chloro-4-((3-fluorobenzyl)oxy)phenyl)amino)-7H-pyrrolo[2,3-d]pyrimidin-5-yl)piperidin-1-yl)prop-2-en-1-one], for which the GI50 in test [1], in test [3] (setting [5]) and in test [2] (setting [4]) was under 50 nM in each case.

Consider `C=CC(=O)N1CCC(c2c[nH]c3ncnc(Nc4ccc(OCc5ccsn5)c(Cl)c4)c23)CC1` [Compound 229, 1-(4-(4-((3-chloro-4-(isothiazol-3-ylmethoxy)phenyl)amino)-7H-pyrrolo[2,3-d]pyrimidin-5-yl)piperidin-1-yl)prop-2-en-1-one], for which the concentration for 50% growth inhibition (GI50) in test [1], in test [3] (setting [5]) and in test [2] (setting [4]) was under 50 nM throughout.

As to `C=CC(=O)N1[C@@H]2CC[C@H]1CC(c1c[nH]c3ncnc(Nc4ccc(OCc5ccccn5)c(Cl)c4)c13)C2` (some centres unmarked) [Compound 230], the GI50 in test [1], in test [3] (setting [5]) and in test [2] (setting [4]) was under 50 nM in each case.

On to `C=CC(=O)N1CCC(c2c[nH]c3ncnc(Nc4ccc(Oc5ccnc(NC(=O)C6CCC6)c5)cc4F)c23)CC1` [Compound 231, N-(4-(4-((5-(1-acryloylpiperidin-4-yl)-7H-pyrrolo[2,3-d]pyrimidin-4-yl)amino)-3-fluorophenoxy)pyridin-2-yl)cyclobutanecarboxamide], for which the GI50 in test [1], in test [3] (setting [5]) and in test [2] (setting [4]) was 50 to 200 nM throughout.

In the case of `C=CC(=O)N1CCC(c2c[nH]c3ncnc(Nc4ccc(Oc5ccnc(NC(=O)C6CC6)c5)cc4F)c23)CC1` [Compound 232, N-(4-(4-((5-(1-acryloylpiperidin-4-yl)-7H-pyrrolo[2,3-d]pyrimidin-4-yl)amino)-3-fluorophenoxy)pyridin-2-yl)cyclopropanecarboxamide], the GI50 in test [1] was under 50 nM; in test [3] (setting [5]) it was under 50 nM; in test [2] (setting [4]) it was under 50 nM; in the test with A431 cells, over 1000 nM.
